pIC50: −log10 of the molar value.
Key:
[1] = system: Sorbitol accumulation in lens; assay: Inhibitory action on sorbitol accumulation in tissues of rats with experimental (streptozotocin) diabetes: lens; type: in vivo, Sprague-Dawley rats; conditions: % of control (control = 100%), measured 3 hours after final administration
Method: (§1) 2) Inhibitory action on sorbitol accumulation in tissues of rats with experimental diabetes
(§2) Test Drugs: Compound of the invention and EPALRESTAT (described in Japanese Patent Unexamined Publication No. 40478/1982)
(§3) Sprague-Dawley rats (male, 6 weeks old, 5-6 per group) were fasted for 18 hours and injected with streptozotocin (SIGMA, 60 mg/kg) via the tail vein under etherization to prepare rats with diabetes.
(§4) The various compounds were orally administered at 4, 8 and 24 hours after the injection of streptozotocin, at 10 mg/kg or 30 mg/kg as a 0.5% carboxymethylcellulose suspension. During the administrations, the rats were raised under free access to feed and water and the sorbitol content in the tissues (erythrocytes, sciatic nerve, lens) was determined 3 hours after the final administration, according to the enzyme method of H. Y. Bergmeyer et al. [Methods of Enzymatic Analysis, vol. 3, 1323-1330 (1974)]with the use of SDH (sorbitol dehydrogenase) and NAD (β-nicotinamide adenine dinucleotide). The results are expressed in percent (%) relative to the value of a control group administered with 0.5% carboxymethylcellulose solution (solvent) instead of the compound, which was taken as 100%.

[2] = system: Sorbitol accumulation in erythrocytes; assay: Inhibitory action on sorbitol accumulation in tissues of rats with experimental (streptozotocin) diabetes: erythrocytes; type: in vivo, Sprague-Dawley rats; conditions: % of control (control = 100%), measured 3 hours after final administration
Method: as §1, §2, §3, §4

[3] = system: Sorbitol accumulation in sciatic nerve; assay: Inhibitory action on sorbitol accumulation in tissues of rats with experimental (streptozotocin) diabetes: sciatic nerve; type: in vivo, Sprague-Dawley rats; conditions: % of control (control = 100%), measured 3 hours after final administration
Method: as §1, §2, §3, §4

ICR mice = conditions: mouse, in vivo
Method: The acute toxicity (safety) of the compound of the present invention was confirmed by the following method.
Normal ICR mice (male, 7 weeks old, 5 per group) were fasted for 18 hours and the compound (300 mg/kg) of Example 37 was orally administered as a 0.5% carboxymethylcellulose suspension. To the control group, a 0.5% carboxymethylcellulos e solution alone was orally administered and observation was continued for 14 days thereafter, during which period the mice were allowed to take feed and water freely.

aldose reductase = molecular target: T1, aldose reductase (Sus scrofa, UniProt P80276); assay: Aldose reductase inhibitory action (swine lens enzyme, dl-glyceraldehyde substrate, NADPH, absorbance change at 340 nm); type: biochemical; conditions: 3 mM dl-glyceraldehyde, 0.1 mM NADPH, pH 6.2, 25° C., 2 minutes, read-out: IC50 (concentration inhibiting the aldose reductase activity by 50%)
T1 construct: swine lenses freeze-stored at -80° C. were homogenized with distilled water; from tissue; host or cells: swine lens
Method: That is, swine lenses freeze-stored at -80° C. were homogenized with distilled water and cetrifuged at 10,000 G for 15 minutes. The supernatant was prepared into a 40% ammonium sulfate solution and subjected to cetrifugation at 10,000 G for 10 minutes.
The activity of aldose reductase was determined by the above-mentioned method of S. Hayman et al. That is, the above-mentioned enzyme solution (25 μl) and a drug solution (25 μl) dissolved in 1% DMSO at various concentrations were added to a 40 mM phosphate buffer (200 μl, pH 6.2) containing final concentrations of 0.4 M lithium sulfate, 0.1 mM NADPH (reduced type nicotinamide adenine dinucleotide phosphate) and 3 mM dl-glyceraldehyde as a substrate.
The test drug number indicates the example number to be mentioned later.

[4] = 30 mg/kg oral at 4, 8 and 24 hours after streptozotocin
[5] = 10 mg/kg oral at 4, 8 and 24 hours after streptozotocin, * p<0.05, ** p<0.01 (Tukey)
[6] = 10 mg/kg oral at 4, 8 and 24 hours after streptozotocin, ** p<0.01 (Tukey)

pIC50 (aldose reductase)	SMILES	Sorbitol accumulation, lens [1, 4]	Sorbitol accumulation, erythrocytes [2, 4]	Sorbitol accumulation, sciatic nerve [3, 4]	death among the mice (ICR mice)	Sorbitol accumulation, lens [1, 5]	Sorbitol accumulation, erythrocytes [2, 6]	Sorbitol accumulation, sciatic nerve [3, 6]
7.89	O=C(O)CCC(=O)N(Cc1nc2c(Cl)c(Cl)ccc2s1)c1ccc(Cl)cc1 [Example 39, N-(4-chlorophenyl)-N-[(4,5-dichlorobenzothiazol-2-yl)methyl]succinamic acid]	–	–	–	–	–	–	–
7.89	Cc1ccc(N(Cc2nc3c(F)c(F)cc(F)c3s2)C(=O)CCC(=O)O)cc1 [Example 41, N-[(4,5,7-trifluorobenzothiazol-2-yl)methyl]-N-(4-methylphenyl)succinamic acid]	–	–	–	–	–	–	–
7.82	O=C(O)CCC(=O)N(Cc1nc2c(F)c(F)cc(F)c2s1)c1ccccc1 [Example 65, N-[(4,5,7-trifluorobenzothiazol-2-yl)methyl]-N-phenylsuccinamic acid]	–	–	–	–	71.8%	6.4%	4.0%
7.89	CSc1ccccc1N(Cc1nc2c(F)c(F)cc(F)c2s1)C(=O)CCC(=O)O [Example 72, N-[(4,5,7-trifluorobenzothiazol-2-yl)methyl]-N-(2-methylthiophenyl)succinamic acid]	–	–	–	–	50.0%	19.2%	10.8%

The remaining lines, values behind:

SMILES	pIC50 (aldose reductase)	Sorbitol accumulation, lens [1, 4]	Sorbitol accumulation, erythrocytes [2, 4]	Sorbitol accumulation, sciatic nerve [3, 4]	death among the mice (ICR mice)	Sorbitol accumulation, lens [1, 5]	Sorbitol accumulation, erythrocytes [2, 6]	Sorbitol accumulation, sciatic nerve [3, 6]
CC(/C=C1\SC(=S)N(CC(=O)O)C1=O)=C\c1ccccc1 [EPALRESTAT, reference compound]	–	89.1%	66.5%	99.9%	–	–	–	–
O=C(O)CCC(=O)N(Cc1nc2c(F)c(F)cc(F)c2s1)c1ccc(Cl)cc1 [Example 37, N-(4-chlorophenyl)-N-[(4,5,7-trifluorobenzothiazol-2-yl)methyl]succinamic acid]	–	–	–	–	no case of death	55.4%	16.4%	17.8%
O=C(O)CCC(=O)N(Cc1nc2c(F)c(F)cc(F)c2s1)c1ccccc1Cl [Example 48, N-(2-chlorophenyl)-N-[(4,5,7-trifluorobenzothiazol-2-yl)methyl]succinamic acid]	–	–	–	–	–	56.6%	32.8%	45.7%
COc1ccc(N(Cc2nc3c(F)c(F)cc(F)c3s2)C(=O)CCC(=O)O)cc1 [Example 55, N-[(4,5,7-trifluorobenzothiazol-2-yl)methyl]-N-(4-methoxyphenyl)succinamic acid]	–	–	–	–	–	74.4%	2.5%	27.2%

Reference: patent US5532257A, “Benzothiazole compound, production thereof and use thereof” (Senju Pharmaceutical Co., Ltd, priority 1993, dated 1996)
